Test results reported in article PMC6584500, “Small-molecule targeting of MUSASHI RNA-binding activity in acute myeloid leukemia” (Nature Communications, 2019).
Where two headings read alike, the source gives them in different places.

What was measured:
[1] = molecular target: T1, GST-MSI2 (full-length human MSI2) (Homo sapiens, UniProt Q96DH6); test: microscale thermophoresis; assay type: binding
T1 construct: full-length, N-terminal GST-Flag tag kept (pGEX6P3), expressed in E. coli BL21(DE3)

[2] = molecular target: T2, MSI2 RRM1 (Homo sapiens, UniProt Q96DH6); test: NMR chemical shift perturbation; assay type: binding; settings: 15N-labelled RRM1, tag removed, 20 mM MES, 150 mM NaCl, pH 6.0, 5 °C
T2 construct: RNA-recognition motif 1 only (nucleotides 64-270 of NM_138962.2 as printed); GST-RRM1 made in BL21(DE3); for NMR His6-SUMO fusion with tag cleaved
T2 sequence (Q96DH6 22-104): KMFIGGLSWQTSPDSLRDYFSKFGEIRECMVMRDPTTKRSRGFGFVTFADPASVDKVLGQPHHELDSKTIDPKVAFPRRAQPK

[3] = molecular target: T3, bovine serum ALBUMIN (Bos taurus, UniProt P02769); test: microscale thermophoresis; assay type: binding
T3 construct: gene ALB

[4] = molecular target: T1, GST-MSI2 (full-length human MSI2); test: fluorescence polarization, RNA-binding inhibition
[5] = molecular target: T4, GST-MSI2 (full-length human MSI2) (Homo sapiens, UniProt Q96DH6, F66A/F97A/R100A); test: microscale thermophoresis; settings: NT647-labelled protein, 50 mM HEPES, 100 mM NaCl, 0.05% Tween-20, pH 7.4, RT; no binding
T4 construct: full-length, N-terminal GST-Flag tag kept (pGEX6P3), expressed in E. coli BL21(DE3)

[6] = molecular target: T5, GST-MSI2 (full-length human MSI2) (Homo sapiens, UniProt Q96DH6, F97A); test: microscale thermophoresis; assay type: binding
T5 construct: full-length, N-terminal GST-Flag tag kept (pGEX6P3), expressed in E. coli BL21(DE3)

[7] = molecular target: T2, MSI2 RRM1; test: microscale thermophoresis; assay type: binding; settings: NT647-labelled protein, pH 7.4, RT
[8] = molecular target: T6, GST-MSI2 (full-length human MSI2) (Homo sapiens, UniProt Q96DH6, K22A); test: microscale thermophoresis; assay type: binding
T6 construct: full-length, N-terminal GST-Flag tag kept (pGEX6P3), expressed in E. coli BL21(DE3)

[9] = molecular target: T7, GST-SYNCRIP (Homo sapiens, UniProt O60506); test: microscale thermophoresis; assay type: binding
T7 construct: N-terminal GST-Flag tag kept (pGEX6P3), expressed in E. coli BL21(DE3)
T7 sequence (O60506 1-623): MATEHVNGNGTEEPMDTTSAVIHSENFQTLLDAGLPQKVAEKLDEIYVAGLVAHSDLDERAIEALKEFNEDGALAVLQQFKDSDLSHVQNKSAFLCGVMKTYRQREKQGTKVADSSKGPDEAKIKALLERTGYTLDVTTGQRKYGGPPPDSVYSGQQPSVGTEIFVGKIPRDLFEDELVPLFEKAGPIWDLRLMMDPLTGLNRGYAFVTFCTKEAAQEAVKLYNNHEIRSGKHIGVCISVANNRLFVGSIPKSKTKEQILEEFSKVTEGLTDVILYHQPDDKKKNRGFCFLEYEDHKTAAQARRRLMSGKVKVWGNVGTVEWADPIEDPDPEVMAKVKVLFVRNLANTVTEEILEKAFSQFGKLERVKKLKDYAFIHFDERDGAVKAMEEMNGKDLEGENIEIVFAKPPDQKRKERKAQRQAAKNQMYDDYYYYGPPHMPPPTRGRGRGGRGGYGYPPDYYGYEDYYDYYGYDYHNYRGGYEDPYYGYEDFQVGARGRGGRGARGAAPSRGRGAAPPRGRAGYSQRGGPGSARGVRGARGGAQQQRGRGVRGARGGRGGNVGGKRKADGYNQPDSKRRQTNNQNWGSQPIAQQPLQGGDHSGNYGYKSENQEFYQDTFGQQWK

[10] = molecular target: T8, GST-MSI2 (full-length human MSI2) (Homo sapiens, UniProt Q96DH6, R100A); test: microscale thermophoresis; assay type: binding
T8 construct: full-length, N-terminal GST-Flag tag kept (pGEX6P3), expressed in E. coli BL21(DE3)

[11] = molecular target: T9, GST-SRSF2 (Homo sapiens, UniProt Q01130); test: microscale thermophoresis; assay type: binding
T9 construct: commercial GST-tagged recombinant protein
T9 sequence (Q01130 2-221): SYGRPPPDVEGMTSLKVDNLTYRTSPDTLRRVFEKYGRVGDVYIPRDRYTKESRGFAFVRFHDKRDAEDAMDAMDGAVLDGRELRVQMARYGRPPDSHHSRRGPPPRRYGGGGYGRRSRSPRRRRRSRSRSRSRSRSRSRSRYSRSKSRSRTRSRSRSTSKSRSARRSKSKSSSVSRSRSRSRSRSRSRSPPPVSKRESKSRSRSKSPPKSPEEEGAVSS

[12] = molecular target: T10, GST-MSI2 (full-length human MSI2) (Homo sapiens, UniProt Q96DH6, F66A); test: microscale thermophoresis; assay type: binding
T10 construct: full-length, N-terminal GST-Flag tag kept (pGEX6P3), expressed in E. coli BL21(DE3)

[13] = molecular target: T1, GST-MSI2 (full-length human MSI2); test: fluorescence polarization, RNA-binding inhibition; assay type: biochemical; settings: Cy3-C9-rGUAGUAGU RNA oligo, 384-well; no inhibition
[14] = molecular target: T1, GST-MSI2 (full-length human MSI2); test: fluorescence polarization, RNA-binding inhibition; assay type: biochemical
[15] = molecular target: MSI2 R100A (Homo sapiens, UniProt Q96DH6 1-328, R100A); test: MST; MST: 50 mM HEPES, 100 mM NaCl, 0.05% Tween-20, pH 7.4, RT; EMSA: 10 mM HEPES, 20 mM KCl (+10 mM KCl), 1 mM MgCl2, 1 mM DTT, 5% glycerol, 100 ug/mL tRNA, 40 nM RNA, RT; settings: protein: recombinant; tags: GST, Flag; single strand
[16] = molecular target: MSI2 K22A (Homo sapiens, UniProt Q96DH6 1-328, K22A); test: as above; settings: protein: recombinant; tags: GST, Flag; single strand
[17] = molecular target: MSI2 WT (Homo sapiens, UniProt Q96DH6 1-328); test: as above; settings: protein: recombinant; tags: GST, Flag; single strand
[18] = molecular target: MSI2 F97A (Homo sapiens, UniProt Q96DH6 1-328, F97A); test: as above; settings: protein: recombinant; tags: GST, Flag; single strand
[19] = molecular target: MSI2 F66A (Homo sapiens, UniProt Q96DH6 1-328, F66A); test: as above; settings: protein: recombinant; tags: GST, Flag; single strand
Chain of MSI2 F66A (Q96DH6 whole entry F66A): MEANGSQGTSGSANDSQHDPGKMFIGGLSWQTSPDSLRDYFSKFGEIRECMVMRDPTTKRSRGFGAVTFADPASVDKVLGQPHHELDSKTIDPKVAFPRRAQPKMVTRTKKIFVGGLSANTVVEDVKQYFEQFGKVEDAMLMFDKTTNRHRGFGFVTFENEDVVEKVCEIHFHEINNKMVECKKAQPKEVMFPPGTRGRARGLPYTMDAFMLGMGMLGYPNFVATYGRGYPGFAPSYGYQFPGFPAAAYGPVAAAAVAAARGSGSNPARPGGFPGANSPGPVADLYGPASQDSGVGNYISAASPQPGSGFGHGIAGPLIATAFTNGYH

T1 sequence (Q96DH6 whole entry): as the sequence (Q96DH6 whole entry F66A) above, with A66F counted along it
T4 sequence (Q96DH6 whole entry F66A/F97A/R100A): as the sequence (Q96DH6 whole entry F66A) above, with F97A, R100A counted along it
T3 sequence (P02769 25-607): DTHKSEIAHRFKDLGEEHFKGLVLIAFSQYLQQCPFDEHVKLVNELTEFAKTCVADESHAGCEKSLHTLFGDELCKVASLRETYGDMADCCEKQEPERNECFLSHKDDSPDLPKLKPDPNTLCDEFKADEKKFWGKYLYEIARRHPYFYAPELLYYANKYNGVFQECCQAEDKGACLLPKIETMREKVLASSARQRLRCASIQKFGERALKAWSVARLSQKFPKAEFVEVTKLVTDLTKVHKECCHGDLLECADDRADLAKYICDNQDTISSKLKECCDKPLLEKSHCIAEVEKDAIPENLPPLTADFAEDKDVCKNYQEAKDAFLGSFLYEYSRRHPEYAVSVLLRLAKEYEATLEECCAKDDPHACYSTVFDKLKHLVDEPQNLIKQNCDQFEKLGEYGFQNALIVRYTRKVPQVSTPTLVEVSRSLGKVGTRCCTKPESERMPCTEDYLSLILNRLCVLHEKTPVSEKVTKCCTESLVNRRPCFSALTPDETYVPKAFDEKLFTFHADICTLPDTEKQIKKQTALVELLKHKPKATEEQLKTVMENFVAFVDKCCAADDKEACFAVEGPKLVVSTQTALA
T10 sequence (Q96DH6 whole entry F66A): as the sequence (Q96DH6 whole entry F66A) above
T6 sequence (Q96DH6 whole entry K22A): as the sequence (Q96DH6 whole entry F66A) above, with K22A, A66F counted along it
Chain of MSI2 K22A (Q96DH6 whole entry K22A): as the sequence (Q96DH6 whole entry F66A) above, with K22A, A66F counted along it
Chain of MSI2 R100A (Q96DH6 whole entry R100A): as the sequence (Q96DH6 whole entry F66A) above, with A66F, R100A counted along it
T8 sequence (Q96DH6 whole entry R100A): as the sequence (Q96DH6 whole entry F66A) above, with A66F, R100A counted along it
Chain of MSI2 WT (Q96DH6 whole entry): as the sequence (Q96DH6 whole entry F66A) above, with A66F counted along it
Chain of MSI2 F97A (Q96DH6 whole entry F97A): as the sequence (Q96DH6 whole entry F66A) above, with A66F, F97A counted along it
T5 sequence (Q96DH6 whole entry F97A): as the sequence (Q96DH6 whole entry F66A) above, with A66F, F97A counted along it

In the case of `Cc1cc2nc3c(=O)[nH]c(=O)nc-3n(C)c2cc1C=O` [Ro, Ro 08–2750], the Kd [1] is reported as 12.3 ± 0.5 µM, the “NMR chemical shift perturbation” value [2] is reported as “observed three main regions with structural changes by titrating MSI2 with Ro” and the Kd [3] is reported as greater than 500 µM. For the same molecule, the IC50 [4] was 2.7 ± 0.4 µM, the microscale thermophoresis [5] was “The triple mutant (F66A/F97A/R100A) was incapable of binding to Ro” and the Kd [6] was 69.5 ± 14.7 µM. It also gave a Kd [7] of 24.3 ± 4 µM, a Kd [8] greater than 200 µM and a Kd [9] of 236 ± 167 µM. For the same molecule, the Kd [10] was 148 ± 65 µM, the Kd [11] was 190 ± 62 µM and the Kd [12] was greater than 200 µM.

In the case of `CC(=O)Nc1ccc2nc3c(=O)n(C)c(=O)n(C)c3nc2c1` [Ro-NGF], the Kd ([1]; NT647-labelled protein, 50 mM HEPES, 100 mM NaCl, 0.05% Tween-20, pH 7.4, RT, no interaction detected up to 500 μM) is reported as greater than 500 µM and the “fluorescence polarization, RNA-binding inhibition” value [13] is reported as “Ro-NGF failing to inhibit RNA-binding activity”.

For `Cc1cc2nc3c(=O)[nH]c(=O)nc-3n(C)c2cc1CO` [Ro-OH], the Kd [1] was 302 ± 119 µM and the IC50 [14] was 25 ± 8 µM.

With GUAGUAGUAGUAGUA (ssRNA) [15-nt MSI RNA oligo] the Kd [15] was 0.0065 ± 0.0009 µM, the Kd [16] was 0.0064 ± 0.0006 µM and the Kd [17] was 0.0088 ± 0.0009 µM. For the same molecule, the Kd [18] was 0.0066 ± 0.001 µM and the Kd [19] was 0.0062 ± 0.0006 µM.
